How the values were obtained:
[1] = tested on: MEK and ERK in WM266.4 cells (BRAF mutant); experiment: pMEK/pERK immunoblot; assay type: cell-based; details: 24 hr
[2] = tested on: patient #2 cell xenograft; experiment: Xenograft growth; assay type: in vivo, nude mice; details: for body weight: 20 mg/kg oral daily, patient #2 xenograft study; for xenograft growth: PLX4720 90 mg/kg, CCT compounds 20 mg/kg oral daily, nude mice
patient #4 PDX = experiment: PDX growth; assay type: in vivo, NSG mice; details: for body weight: 20 mg/kg daily gavage, patient #4 PDX study; for PDX sensitivity: PLX4720 45 mg/kg, CCT compounds 20 mg/kg daily gavage, NSG mice
[3] = tested on: caspase 3 and PARP cleavage in patient #2 cells; experiment: PARP and caspase 3 immunoblot; assay type: cell-based; details: 1 μM; 4 hr
[4] = Single and repeat dose tolerability / oral toxicity; assay type: in vivo, CD-1 mice; details: for weight loss: 30 mg/kg for 4 days
[5] = tested on: RAS mutant melanoma and colorectal cancer cells; experiment: Cell growth inhibition; assay type: cell-based; details: Figures 2A and 2B
PDX from patient #5 = experiment: PDX growth; assay type: in vivo, NSG mice; details: for body weight: 20 mg/kg daily gavage, patient #5 PDX study; for PDX sensitivity compared with PLX4720: PLX4720 45 mg/kg, CCT compounds 20 mg/kg daily gavage, NSG mice
[6] = tested on: panel of 63 protein kinases; experiment: Efficacy against a panel of protein kinases; assay type: biochemical; details: 1 μM, percent activity compared to DMSO
[7] = tested on: cell lines from patient #5 tumor; experiment: Cell proliferation assay; assay type: cell-based; details: CellTiter Glo
MEK1 = MEK1 (Homo sapiens, UniProt Q02750); experiment: Z'-LYTE kinase assay; assay type: biochemical
[8] = tested on: MEK, ERK and SRC/SFKs in patient #2 cells; experiment: pMEK, pERK, pSFK immunoblot; assay type: cell-based; details: 4 hr; for inhibition of SFKs: 0.5 µM, Figure S3B; for inhibition of MEK, ERK, and SRC: 1 μM
[9] = tested on: cancer cells that are wild-type for BRAF and NRAS; experiment: Cell growth inhibition; assay type: cell-based; details: Figure 2A, in general
[10] = tested on: patient #2 cells (vemurafenib-resistant melanoma); experiment: Cell proliferation assay; assay type: cell-based
SK-Mel 23 cells = experiment: Cell growth inhibition; assay type: cell-based; details: Figure 2A
BRAF = BRAF (Homo sapiens, UniProt P15056); experiment: Z'-LYTE kinase assay; assay type: biochemical
[11] = tested on: PLX4720-resistant PDX from patient #1; experiment: PDX growth; assay type: in vivo, NSG mice; details: PLX4720 45 mg/kg, CCT compounds 20 mg/kg daily gavage
LCK = LCK (Homo sapiens, UniProt P06239); experiment: Z'-LYTE kinase assay; assay type: biochemical
[12] = tested on: A375/R xenograft (PLX4720-resistant A375); experiment: Xenograft growth; assay type: in vivo, nude mice; details: 20 mg/kg oral daily; for body weight: A375/R xenograft study; for xenograft growth: nude mice
[13] = tested on: MEK in NRAS mutant D04 cells; experiment: pMEK/pERK immunoblot; assay type: cell-based; details: 24 hr
BRAF^T529N,V600E = experiment: BRAF kinase inhibition, gatekeeper mutant; assay type: biochemical
[14] = tested on: BRAF^V600E A375 xenograft; experiment: Xenograft growth; assay type: in vivo, nude mice
[15] = tested on: ERK activity in SK-Mel 23 cells; experiment: pERK immunoblot; assay type: cell-based; details: 1 μM; 4 hr
A375/R cells = experiment: Cell proliferation assay; assay type: cell-based; details: CellTiter Glo
BRAF^V600E A375 cells = experiment: Cell proliferation assay; assay type: cell-based; details: CellTiter Glo
COT = COT (Homo sapiens, UniProt P41279); experiment: Z'-LYTE kinase assay; assay type: biochemical
NRAS mutant D04 cells = experiment: Cell proliferation assay; assay type: cell-based; details: CellTiter Glo
[16] = tested on: Ba/F3 cells transformed with BRAF^T529N,V600E; experiment: Growth of Ba/F3 cells; assay type: cell-based; details: [3H]-thymidine incorporation
[17] = Pharmacokinetic studies, plasma, oral and intravenous dosing; assay type: in vivo, Balb/c mice; details: for bioavailability: Balb/c, mouse, plasma, po, 10 mg/kg; for area under the curve / plasma concentration: oral 10 mg/kg/day; for plasma concentration: 10 mg/kg/day
A375 cells = experiment: Colony formation; assay type: cell-based; details: 0.5 μM; 20 days
[18] = tested on: melanoma and colorectal cancer cell lines that are mutant for BRAF; experiment: Cell growth inhibition; assay type: cell-based; details: Figures 2A and 2B
CRAF = CRAF (Homo sapiens, UniProt P04049, Y340D/Y341D); experiment: Z'-LYTE kinase assay; assay type: biochemical; details: Table 1
PDX from patient #13 = experiment: PDX growth; assay type: in vivo, NSG mice; details: 20 mg/kg daily gavage; patient #13 PDX study
SRC = SRC (Homo sapiens, UniProt P12931); experiment: Z'-LYTE kinase assay; assay type: biochemical
patient #3 PDX = experiment: PDX growth; assay type: in vivo, NSG mice; details: for body weight: 20 mg/kg daily gavage, patient #3 PDX study; for PDX growth: PLX4720 45 mg/kg, CCT compounds 20 mg/kg daily gavage, NSG mice
[19] = tested on: ERK and SRC in patient #3 PDX; experiment: pERK/pSFK immunoblot in PDX; assay type: in vivo, mice; details: PLX4720 45 mg/kg, CCT compounds 20 mg/kg daily gavage
[20] = tested on: NRAS mutant D04 xenograft; experiment: Xenograft growth; assay type: in vivo; details: 20 mg/kg oral daily; nude mice
patient #3 tumor cells = experiment: Cell proliferation assay; assay type: cell-based; details: CellTiter Glo
[21] = 20 mg/kg/day oral, 7 days/week, nude mice
[22] = 25 mg/kg daily for 19 days, CD-1 mice

Chain of COT (P41279 whole entry): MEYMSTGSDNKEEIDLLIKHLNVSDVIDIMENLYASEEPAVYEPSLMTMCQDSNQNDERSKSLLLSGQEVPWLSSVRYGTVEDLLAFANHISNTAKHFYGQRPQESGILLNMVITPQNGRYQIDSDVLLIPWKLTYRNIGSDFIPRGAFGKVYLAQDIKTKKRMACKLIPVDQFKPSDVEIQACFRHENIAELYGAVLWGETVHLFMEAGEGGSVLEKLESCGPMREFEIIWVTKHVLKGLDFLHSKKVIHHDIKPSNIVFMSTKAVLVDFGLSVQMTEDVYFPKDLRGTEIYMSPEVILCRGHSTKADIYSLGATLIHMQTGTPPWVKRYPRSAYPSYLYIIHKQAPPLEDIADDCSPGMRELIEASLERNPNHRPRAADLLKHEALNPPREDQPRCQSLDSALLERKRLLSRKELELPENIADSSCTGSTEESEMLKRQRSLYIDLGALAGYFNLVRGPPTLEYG
Chain of CRAF (P04049 306-648 Y340D/Y341D limits assumed): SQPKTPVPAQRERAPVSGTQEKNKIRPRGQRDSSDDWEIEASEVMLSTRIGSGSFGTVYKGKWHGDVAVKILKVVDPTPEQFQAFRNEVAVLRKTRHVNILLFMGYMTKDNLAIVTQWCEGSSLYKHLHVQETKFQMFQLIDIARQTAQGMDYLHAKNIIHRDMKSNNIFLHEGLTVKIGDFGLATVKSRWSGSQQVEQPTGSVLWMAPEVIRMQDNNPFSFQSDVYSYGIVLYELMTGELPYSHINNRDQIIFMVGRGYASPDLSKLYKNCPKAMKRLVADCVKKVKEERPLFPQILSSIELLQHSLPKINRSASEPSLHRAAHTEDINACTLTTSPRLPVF
Chain of LCK (P06239 whole entry): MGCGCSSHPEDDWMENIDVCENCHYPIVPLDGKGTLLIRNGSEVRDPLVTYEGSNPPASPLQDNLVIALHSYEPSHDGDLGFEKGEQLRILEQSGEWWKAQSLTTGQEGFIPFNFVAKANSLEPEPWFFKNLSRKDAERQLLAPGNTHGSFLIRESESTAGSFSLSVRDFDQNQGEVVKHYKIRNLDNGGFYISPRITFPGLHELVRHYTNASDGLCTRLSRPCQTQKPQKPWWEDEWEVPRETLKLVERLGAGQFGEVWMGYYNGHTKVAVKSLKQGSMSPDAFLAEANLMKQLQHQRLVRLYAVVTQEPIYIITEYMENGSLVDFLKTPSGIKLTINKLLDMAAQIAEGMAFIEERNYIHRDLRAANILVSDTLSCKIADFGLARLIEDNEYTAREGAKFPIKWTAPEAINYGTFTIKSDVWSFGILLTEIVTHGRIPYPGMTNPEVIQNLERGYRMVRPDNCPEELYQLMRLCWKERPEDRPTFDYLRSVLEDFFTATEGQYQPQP
Chain of SRC (P12931 whole entry): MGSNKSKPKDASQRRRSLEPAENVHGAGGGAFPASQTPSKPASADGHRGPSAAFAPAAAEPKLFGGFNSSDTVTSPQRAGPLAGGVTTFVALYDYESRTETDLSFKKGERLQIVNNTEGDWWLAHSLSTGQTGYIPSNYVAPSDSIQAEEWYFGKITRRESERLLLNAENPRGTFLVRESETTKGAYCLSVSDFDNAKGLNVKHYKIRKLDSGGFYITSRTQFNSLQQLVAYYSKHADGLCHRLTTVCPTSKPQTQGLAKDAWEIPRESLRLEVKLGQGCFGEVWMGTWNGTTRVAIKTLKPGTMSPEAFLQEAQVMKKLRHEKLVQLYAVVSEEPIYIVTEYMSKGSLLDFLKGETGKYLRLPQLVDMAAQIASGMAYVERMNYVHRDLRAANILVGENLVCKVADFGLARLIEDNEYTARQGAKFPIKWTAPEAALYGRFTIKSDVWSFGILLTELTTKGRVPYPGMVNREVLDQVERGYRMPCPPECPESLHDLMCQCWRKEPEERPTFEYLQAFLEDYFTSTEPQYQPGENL
Chain of MEK1 (Q02750 whole entry): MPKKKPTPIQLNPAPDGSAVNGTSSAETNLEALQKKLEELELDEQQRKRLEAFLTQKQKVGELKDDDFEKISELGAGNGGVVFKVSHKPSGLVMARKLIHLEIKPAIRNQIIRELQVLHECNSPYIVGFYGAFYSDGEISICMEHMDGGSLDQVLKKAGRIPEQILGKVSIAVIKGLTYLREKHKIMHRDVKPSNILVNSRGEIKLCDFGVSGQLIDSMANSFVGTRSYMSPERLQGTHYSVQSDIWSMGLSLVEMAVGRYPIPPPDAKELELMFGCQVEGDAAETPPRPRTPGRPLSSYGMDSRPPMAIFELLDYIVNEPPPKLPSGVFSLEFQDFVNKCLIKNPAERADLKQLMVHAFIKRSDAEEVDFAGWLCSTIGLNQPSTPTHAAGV
Chain of BRAF (P15056 whole entry): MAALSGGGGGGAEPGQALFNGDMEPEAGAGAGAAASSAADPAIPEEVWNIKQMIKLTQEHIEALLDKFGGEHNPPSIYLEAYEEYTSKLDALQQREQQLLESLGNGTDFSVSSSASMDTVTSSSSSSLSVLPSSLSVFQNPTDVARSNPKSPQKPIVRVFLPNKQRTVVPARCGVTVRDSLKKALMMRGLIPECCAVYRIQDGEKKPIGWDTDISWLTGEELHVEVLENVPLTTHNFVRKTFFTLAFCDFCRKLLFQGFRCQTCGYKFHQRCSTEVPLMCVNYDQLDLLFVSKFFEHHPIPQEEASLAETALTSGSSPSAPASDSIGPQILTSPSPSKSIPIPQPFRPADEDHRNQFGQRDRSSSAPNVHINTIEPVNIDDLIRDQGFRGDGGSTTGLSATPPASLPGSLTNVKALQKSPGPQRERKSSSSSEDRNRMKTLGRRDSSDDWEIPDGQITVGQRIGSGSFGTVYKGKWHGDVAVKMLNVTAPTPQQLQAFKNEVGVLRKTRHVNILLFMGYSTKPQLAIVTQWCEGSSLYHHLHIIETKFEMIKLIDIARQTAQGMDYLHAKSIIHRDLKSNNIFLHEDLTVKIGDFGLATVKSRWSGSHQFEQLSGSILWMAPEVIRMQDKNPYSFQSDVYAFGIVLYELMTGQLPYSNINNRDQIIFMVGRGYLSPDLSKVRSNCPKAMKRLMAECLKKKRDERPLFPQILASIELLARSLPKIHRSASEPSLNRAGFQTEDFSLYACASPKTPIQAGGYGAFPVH

With CSc1cc(Oc2ccnc3[nH]c(=O)cnc23)ccc1NC(=O)Nc1cc(C(C)(C)C)nn1-c1ccccc1 [CCT241161] the “inhibition of MEK and ERK” value [1] was “inhibit MEK and ERK”, the body weight [2] was “without causing any body weight loss” and the xenograft growth [2] was “complete inhibition”. For the same compound, the body weight (patient #4 PDX) was “do not cause body weight loss”, the PDX sensitivity (patient #4 PDX) was “sensitive” and the “caspase 3 and PARP cleavage (apoptosis)” value [3] was “induce caspase 3 and PARP cleavage”. For the same compound, the weight loss ([4]; oral gavage) was “do not cause significant weight loss”, the “activity against RAS mutant cells” value [5] was “also active” and the body weight (PDX from patient #5) was “did not observe any loss in body weight”. The “PDX sensitivity compared with PLX4720” value (PDX from patient #5) was “more sensitive”, the “kinases inhibited in a panel of protein kinases” value [6] was “only inhibit SRC, LCK, and the p38 mitogen-activated protein kinases (MAPKs)” and the “cell sensitivity compared with PLX4720” value [7] was “more sensitive”. The IC50 (MEK1) was over 10000 nM, the “inhibition of SFKs” value [8] was “also inhibit SFKs” and the “inhibition of MEK, ERK, and SRC” value [8] was “inhibit MEK, ERK, and SRC”. The “activity against BRAF and NRAS wild-type cancer cells” value [9] was “not active”, the cell line sensitivity ([10]; CellTiter Glo) was “sensitive” and the “sensitivity of SK-Mel 23 cells” value (SK-Mel 23 cells) was “sensitive”. The IC50 (BRAF) was 252 nM, the PDX sensitivity [11] was “remains sensitive” and the IC50 (LCK) was 3 nM. For the same compound, the body weight [12] was “without causing any body weight loss”, the xenograft growth [12] was “inhibit the growth” and the “effect on MEK in NRAS mutant cells” value [13] was “inhibit rather than activate MEK”. The “fold less active against BRAF^T529N,V600E than BRAF^V600E” value (BRAF^T529N,V600E) was 42 fold, the xenograft growth [14, 21] was “tumor regression” and the “ERK activity in SK-Mel 23 cells” value [15] was “sensitive”. For the same compound, the “sensitivity of PLX4720-resistant A375 cells” value (A375/R cells) was “still sensitive”, the “growth inhibition of BRAF mutant melanoma cells, compared with PLX4720” value (BRAF^V600E A375 cells) was “more potently than PLX4720” and the IC50 (COT) was over 10000 nM. The “NRAS mutant cell growth inhibition, compared with PLX4720” value (NRAS mutant D04 cells) was “more efficiently than does PLX4720”, the “fold less sensitive, Ba/F3 cells transformed with BRAF^T529N,V600E vs BRAF^V600E” value [16] was 19 fold and the bioavailability [17] was about 55%. For the same compound, the “area under the curve” value [17] was ~275,000 nM.hr, the plasma concentration ([17]; at 14 hr) was about 1000 nM and the “colony formation under continual exposure” value (A375 cells) was “no cells are able to grow”. For the same compound, the “activity against BRAF mutant cell lines” value [18] was “active”, the IC50 (CRAF) was 6 nM and the body weight (PDX from patient #13) was “no body weight loss was observed”. The IC50 (SRC; inhibits SRC at) was 15 nM, the body weight (patient #3 PDX) was “without causing body weight loss” and the PDX growth (patient #3 PDX) was “tumor regression”. The “inhibition of ERK and SRC in PDX” value [19] was “inhibit ERK and SRC”, the xenograft growth [20] was “inhibit the growth” and the cell sensitivity (patient #3 tumor cells) was “sensitive”.

With C[S+]([O-])c1ccc(-c2nc(-c3ccncc3)c(-c3ccc(F)cc3)[nH]2)cc1 (stereo not drawn) [SB203580] the “cooperation with the pan-RAF inhibitors RAF265 or MLN2480” value ([10]; 10 µM SB203580 in combination, Figure S3E) was “does not cooperate”.

In the case of CCCS(=O)(=O)Nc1ccc(F)c(C(=O)c2c[nH]c3ncc(Cl)cc23)c1F [PLX4720, reference compound], the xenograft growth [2] is reported as “resistant”, the PDX sensitivity (patient #4 PDX) is reported as “resistant” and the “caspase 3 and PARP cleavage (apoptosis)” value [3] is reported as “does not”. The “inhibition of MEK, ERK, and SRC” value [8] was “does not”, the cell line sensitivity ([10]; CellTiter Glo) was “resistant” and the PDX sensitivity [11] was “resistance”. For the same compound, the PDX growth (patient #3 PDX) was “neither does it inhibit the growth”, the “inhibition of ERK and SRC in PDX” value [19] was “does not inhibit ERK or SRC” and the cell sensitivity (patient #3 tumor cells) was “not inhibited”.

With CC(C)(C)c1cc(NC(=O)Nc2ccc(Oc3ccnc4[nH]c(=O)cnc34)cc2F)n(-c2ccccc2)n1 [CCT196969] the “inhibition of MEK and ERK” value [1] was “inhibit MEK and ERK”, the body weight [2] was “without causing any body weight loss” and the xenograft growth [2] was “complete inhibition”. For the same compound, the body weight (patient #4 PDX) was “do not cause body weight loss”, the PDX sensitivity (patient #4 PDX) was “sensitive” and the “caspase 3 and PARP cleavage (apoptosis)” value [3] was “induce caspase 3 and PARP cleavage”. The “clinical signs and body weight” value ([4]; 20 mg/kg daily × 24 days, CD-1 mice) was “no clinical signs or body weight loss”, the “body weight and food intake” value [4, 22] was “did not show any body weight loss or reduction in food intake” and the clinical signs [4, 22] was “tachypnoea with decreased activity and excitation”. The mortality [4, 22] was “did not observe any mortality”, the “microscopical examination of tissues” value ([4]; 25 mg/kg daily for 19 days, end of the study) was “did not identify any treatment-related changes” and the weight loss ([4]; oral gavage) was “do not cause significant weight loss”. The “clinical signs / adverse effects” value ([4]; single dose 20 mg/kg, oral gavage, CD-1 mice) was “no observed adverse effects”, the body weight ([4]; single dose 40 mg/kg, oral gavage, CD-1 mice) was “no effect on body weight” and the clinical signs ([4]; single dose 40 mg/kg, oral gavage, CD-1 mice, 1 hr after dosing) was “slight, transient tachypnoea”. For the same compound, the “activity against RAS mutant cells” value [5] was “also active”, the body weight (PDX from patient #5) was “did not observe any loss in body weight” and the “PDX sensitivity compared with PLX4720” value (PDX from patient #5) was “more sensitive”. The “kinases inhibited in a panel of protein kinases” value [6] was “only inhibit SRC, LCK, and the p38 mitogen-activated protein kinases (MAPKs)”, the “cell sensitivity compared with PLX4720” value [7] was “more sensitive” and the IC50 (MEK1) was over 10000 nM. For the same compound, the “inhibition of SFKs” value [8] was “also inhibit SFKs”, the “inhibition of MEK, ERK, and SRC” value [8] was “inhibit MEK, ERK, and SRC” and the “activity against BRAF and NRAS wild-type cancer cells” value [9] was “not active”. The cell line sensitivity ([10]; CellTiter Glo) was “sensitive”, the “growth inhibition compared with PLX4720, ARQ736, RAF265, MLN2480” value ([10]; CellTiter Glo, Figure S3C) was “more potently than any of the other inhibitors” and the “sensitivity of SK-Mel 23 cells” value (SK-Mel 23 cells) was “sensitive”. The PDX sensitivity [11] was “remains sensitive”, the IC50 (LCK) was 14 nM and the body weight [12] was “without causing any body weight loss”. The xenograft growth [12] was “inhibit the growth”, the “effect on MEK in NRAS mutant cells” value [13] was “inhibit rather than activate MEK” and the xenograft growth ([14]; 10 mg/kg/day, data not shown) was “also effective”. The xenograft growth [14, 21] was “tumor regression”, the “ERK activity in SK-Mel 23 cells” value [15] was “sensitive” and the “growth inhibition of BRAF mutant melanoma cells, compared with PLX4720” value (BRAF^V600E A375 cells) was “more potently than PLX4720”. For the same compound, the IC50 (COT) was over 10000 nM, the “NRAS mutant cell growth inhibition, compared with PLX4720” value (NRAS mutant D04 cells) was “more efficiently than does PLX4720” and the bioavailability [17] was about 55%. The “area under the curve” value [17] was ~416,000 nM.hr, the plasma concentration ([17]; at 24 hr) was about 1000 nM and the “colony formation under continual exposure” value (A375 cells) was “no cells are able to grow”. The “activity against BRAF mutant cell lines” value [18] was “active”, the IC50 (CRAF) was 10 nM and the body weight (PDX from patient #13) was “no body weight loss was observed”. For the same compound, the IC50 (SRC; IC50 SRC, Table 1) was 30 nM, the body weight (patient #3 PDX) was “without causing body weight loss” and the PDX growth (patient #3 PDX) was “tumor regression”. For the same compound, the “inhibition of ERK and SRC in PDX” value [19] was “inhibit ERK and SRC”, the xenograft growth [20] was “inhibit the growth” and the cell sensitivity (patient #3 tumor cells) was “sensitive”.

With COc1cc2ncnc(Nc3ccc(Oc4ccccc4)cc3)c2cc1OC [SRC inhibitor 1] the “effect in combination with TAK632” value ([10]; 40 µM SRC Inhibitor 1 with TAK632, Figure S3D) was “increases the activity of the pan-RAF inhibitor TAK632” and the activity alone ([10]; CellTiter Glo, Figure S3D) was “inactive alone”.

Source: publication PMC4297292 (Cancer Cell, 2015)
